Values joined by “and” are separate entries in the source; they are usually repeats but may differ in a detail not shown here. Equal values may be shown once.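 Test compounds were applied to cells in 96-well plates for 48 hours at 5 doses. The concentration for 50% growth inhibition is given as GI50. At the TGI there is no net growth.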
Experiments:
Assay in all cases: NCI anticancer screen, dose series, 48 h
[1] = tested on: DLD-1 colon
[2] = tested on: DMS 114 small cell lung
[3] = tested on: KM20L2 colon
[4] = tested on: LXFL 529 NSCLC
[5] = tested on: M19-MEL melanoma
[6] = tested on: MCF7 breast
[7] = tested on: MDA-N
[8] = tested on: HOP-18 NSCLC
[9] = tested on: RXF-631 renal

Compound | TGI [1] | TGI [2] | TGI [3] | TGI [4] | TGI [5] | GI50 [6] | TGI [6] | TGI [7] | TGI [8] | TGI [9] | GI50 [7]
COC(=O)/C=C(C)/C=C/C1OC(C)OCC1O (stereo unspecified) | > 100 µM | > 100 µM | > 100 µM | > 100 µM | > 100 µM |  |  |  |  |  | 
C=C(CC(NC(=O)c1ccc(C(CC)Cc2cnc3nc(N)nc(N)c3n2)cc1)C(=O)O)C(=O)O (stereo unspecified) | > 100 µM |  | > 100 µM | > 100 µM |  |  |  |  |  |  | 
CCC(O)c1ccc(Br)cc1NC(=O)c1cccc(Cl)c1 (stereo unspecified) |  |  |  |  |  | 12 µM | 96 µM |  |  |  | 
O=C1c2ccccc2-[n+]2ccc3c([nH]c4ccccc43)c21 |  |  |  |  |  |  | 0.834 µM | 0.318 µM |  |  | 
CC(C)c1c(-c2ccccc2)nc2c(C#N)c[nH]n2c1=O |  |  |  |  |  | 26.2 µM | > 91.5 µM |  |  |  | 
COc1ccc2c(=O)cc(-c3ccccc3)[nH]c2c1 |  |  |  |  |  | 0.387 µM | > 100 µM |  |  |  | 
CC(C)(C)c1cc(C(O)(C(F)(F)F)C(F)(F)F)c2c(c1)C(C(F)(F)F)(C(F)(F)F)OC(C)(C(C)(C)C)N2 (stereo unspecified) | > 100 µM | 8.64 µM | > 100 µM | 14.1 µM | 9.73 µM |  |  |  |  |  | 
CS(=O)(=O)CCNCc1cc(-c2cc3c(Nc4ccc(OCc5cccc(F)c5)c(Cl)c4)ncnc3s2)cs1 |  |  |  |  |  | 10.8 µM | > 25 µM |  |  |  | 
CC(C)c1cnn2c(NCc3ccccc3)cc(NC[C@H]3CCNC[C@@H]3O)nc12 |  |  |  |  |  | 0.13 µM and 0.186 µM | 4.83 µM and 4.03 µM |  |  |  | 
O=C(Cc1nc2ccccc2c(=O)n1-c1ccccc1Cl)c1ccncc1 | > 100 µM | > 100 µM | > 100 µM | > 100 µM | > 100 µM |  |  |  | > 100 µM | > 100 µM | 
CC1=Nc2c(ccc3c2C(=O)c2ccccc2C3=O)NC(c2cccc3c2CCC3)C1 (stereo unspecified) | > 100 µM |  | > 100 µM | > 100 µM | > 72.6 µM |  |  |  | > 100 µM | > 100 µM | 
CCNc1cc(-c2cccc(OC(F)(F)F)c2)nc2ccc(N3CCCC3)cc12 |  |  |  |  |  | 1.84 µM | 6.54 µM |  |  |  | 
COc1ccc(NC(=O)CC2SC(=Nc3ccccc3C)NC2=O)c([N+](=O)[O-])c1 (stereo unspecified) | > 100 µM |  | > 100 µM | > 100 µM | > 100 µM |  |  |  |  |  | 
CCOC(=O)C(=O)Nc1ccccc1C | > 100 µM | > 100 µM | > 100 µM | > 100 µM | > 100 µM |  |  |  |  | > 100 µM | 
CCCNC(=O)C1C(=O)C(=O)N(CCC)C1=O (stereo unspecified) | > 100 µM | > 100 µM | > 100 µM | > 100 µM | > 100 µM |  |  |  | > 100 µM |  | 
CC(C)CCC[C@@H](C)[C@H]1CC[C@H]2[C@@H]3CC[C@H]4C[C@@H](CCC=C(c5cc(Cl)c(O)c(C(=O)O)c5)c5cc(Cl)c(O)c(C(=O)O)c5)CC[C@]4(C)[C@H]3CC[C@]12C |  |  |  |  |  |  | > 100 µM |  |  |  | 
COC12CCC(=O)C=C1c1ccccc1N2C(C)=O (stereo unspecified) | > 100 µM | > 100 µM | > 100 µM | > 100 µM | > 100 µM |  |  |  | > 100 µM |  | 

Compound | TGI [1] | TGI [2] | TGI [3] | TGI [4] | TGI [5] | GI50 [6] | TGI [6] | TGI [7] | TGI [8] | TGI [9] | GI50 [7]
Cc1nc(-c2ccccc2)n2nc(NCCCN3CCOCC3)ncc12 |  |  |  |  |  | > 25 µM | > 25 µM |  |  |  | 
CC[n+]1oc(C(=O)c2ccc(Cl)cc2)c(-c2ccccc2)c1-c1ccccc1.[Cl][Fe]([Cl])([Cl])[Cl] |  |  |  |  |  | 17.4 µM | 65.5 µM | > 100 µM |  |  | 28.7 µM
CC(Oc1ccc2c(-c3ccccc3)cc(=O)oc2c1)C(=O)O (stereo unspecified) | > 100 µM | > 100 µM | > 100 µM | > 100 µM | > 100 µM |  |  |  | > 100 µM |  | 
Cc1ccccc1NC(=O)c1cc(-c2ccc([N+](=O)[O-])cc2)nc(=S)[nH]1 | > 100 µM | > 100 µM | > 100 µM | > 100 µM |  |  |  |  | > 100 µM | > 100 µM | 
COC/C=C\COC | > 100 µM | > 100 µM | > 100 µM | > 100 µM | > 100 µM |  |  |  | > 100 µM | > 100 µM | 
O=C(Nc1cc(C(F)(F)F)ccc1Cl)c1ccc(NC2=C(Cl)C(=O)N(Cc3ccccc3)C2=O)cc1 |  |  |  |  |  | 11.6 µM | > 100 µM |  |  |  | 
NCCSSCCN | > 100 µM | > 100 µM | > 100 µM | > 100 µM | > 100 µM |  | > 100 µM | > 100 µM | > 100 µM | > 100 µM | 
COc1ccccc1C#Cc1ccccc1C#CCCCCO |  |  |  |  |  | 31.7 µM | > 100 µM |  |  |  | 
Nc1ccccc1C#C/C=C\C#Cc1ccc(OCCCNC(=O)c2cc3ccccc3[nH]2)cc1 |  |  |  |  |  | 1.26 µM | 7.15 µM |  |  |  | 
Cc1ccc(NC(=O)CCc2nc(N)nc(N)c2-c2ccccc2)cc1C | > 100 µM | > 100 µM | > 100 µM | > 100 µM | > 100 µM |  |  |  | > 100 µM | > 100 µM | 
N#Cc1ccccc1C(Cl)(Cl)c1cnccn1 | > 100 µM | 43 µM |  | > 100 µM | > 100 µM |  |  |  | > 100 µM |  | 
CCCCCCCCCCCCCCCCCC1=NC(C)(C)CN1CC(C)O (stereo unspecified) |  |  |  |  |  | 3.09 µM | 14.1 µM |  |  |  | 
N/N=C1\C(=O)N(C2CCCCCC2)C(=O)C1C(=O)NC1CCCCCC1 (stereo unspecified) | > 100 µM |  | 38.1 µM | 78.3 µM | > 100 µM |  |  |  | 91.4 µM |  | 
COc1ccc(C(c2c(O)c3ccccc3n(-c3ccccc3)c2=O)c2c(O)c3ccccc3n(-c3ccccc3)c2=O)cc1 | > 100 µM | > 100 µM | > 100 µM | > 100 µM | > 100 µM |  |  |  | > 100 µM |  | 
COc1ccc(-c2cs/c(=N\N=C\c3ccc(O)cc3O)n2/N=C/c2ccc(O)cc2O)cc1 |  |  |  |  |  | 1.9 µM | 5.84 µM |  |  |  | 
COc1ccc(OC)c(NC(=O)CCC/C(CC(=O)c2ccc(O)c(OC)c2)=N\Nc2nnc(C)n2N)c1 | > 100 µM | > 100 µM | > 100 µM | > 100 µM | > 100 µM |  |  |  | > 100 µM |  | 

— PubChem BioAssay (NCI)
